Converted amounts (≈) assume the structure as drawn. Where two headings read alike, the source gives them in different places.
Experiments:
[1] = tested on: Escherichia coli NIHJ JC 2; assay: Antibacterial activity in vitro (MIC), agar plate dilution method; type: cell-based; conditions: NIHJJC2, Mueller Hinton agar, 10^6 cells/ml, 37° C., 20 hours
Experimental: (§1) Antibacterial activity in vitro was determined in accordance with the agar plate dilution method.
(§2) A platinum loop each of test bacteria (10^6 cells/ml), cultured in Mueller Hinton broth, was inoculated on Mueller Hinton agar plates which contained test compounds at various concentrations. After cultivating at 37° C. for 20 hours, the minimum inhibitory concentration (MIC μg/ml) was determined.

[2] = tested on: Klebsiella pneumoniae IFO 3317; assay: as above; type: cell-based
Experimental: as §1, §2

[3] = tested on: Serratia marcescens IFO 3759; assay: as above; type: cell-based
Experimental: as §1, §2

[4] = tested on: Staphylococcus aureus 209P; assay: as above; type: cell-based; conditions: Mueller Hinton agar, 10^6 cells/ml, 37° C., 20 hours
Experimental: as §1, §2

[5] = tested on: Pseudomonas aeruginosa 34; assay: Protection against systemic bacterial infection in ICR mice (ED50); type: in vivo; conditions: 168 h
Experimental: (§3) Protection ability against systemic bacterial infection was determined as follows. An aqueous suspension of test bacteria was intraperitoneally injected into 10 four week old ICR mice. One hour after the infection, test compounds were intravenously administered. The number of surviving mice was counted 1 week after injection to determine the dose at which 50% of the test animals were alive (ED50 : mg/kg).

Serratia marcescens 274 = assay: as above; type: in vivo; conditions: 168 h
Experimental: as §3

Staphylococcus aureus 4 = assay: as above; type: in vivo; conditions: iv, 168 h, Staphylococcus aureus 4 (methicillin-resistant strain), i.p. infection, compound i.v. one hour after infection, survival 1 week
Experimental: as §3

LD50, Probit method = conditions: in vivo, iv
Experimental: Next, LD50 of representative examples of the compounds of the present invention is shown in Table 3 wherein LD50 was determined in accordance with the Probit method.

[6] = tested on: Pseudomonas aeruginosa 34; assay: Antibacterial activity in vitro (MIC), agar plate dilution method; type: cell-based
Experimental: as §1, §2

Enterobacter 8 = assay: Protection against systemic bacterial infection in ICR mice (ED50); type: in vivo; conditions: 168 h
Experimental: as §3

Escherichia coli 67 = assay: as above; type: in vivo; conditions: iv, 168 h, Escherichia coli 67, i.p. infection, compound i.v. one hour after infection, survival 1 week
Experimental: as §3

[7] = tested on: Klebsiella pneumoniae IFO 3317; assay: as above; type: in vivo; conditions: IFO3317, iv, 168 h
Experimental: as §3

[8] = tested on: Pseudomonas aeruginosa IFO 3445; assay: as above; type: in vivo; conditions: IFO3445, iv, 168 h
Experimental: as §3

Staphylococcus aureus 58 = assay: as above; type: in vivo; conditions: iv, 168 h, Staphylococcus aureus 58 (methicillin-resistant strain), i.p. infection, compound i.v. one hour after infection, survival 1 week
Experimental: as §3

[9] = IFO3317, Klebsiella pneumoniae IFO 3317, Mueller Hinton agar, 10^6 cells/ml, 37° C., 20 hours, read-out: MIC
[10] = IFO3759, Serratia marcescens IFO 3759, Mueller Hinton agar, 10^6 cells/ml, 37° C., 20 hours, read-out: MIC
[11] = iv, Pseudomonas aeruginosa 34, i.p. infection, ICR mice, compound i.v. one hour after infection, survival 1 week, read-out: ED50
[12] = iv, Serratia marcescens 274, i.p. infection, ICR mice, compound i.v. one hour after infection, survival 1 week, read-out: ED50
[13] = Pseudomonas aeruginosa 34, Mueller Hinton agar, 10^6 cells/ml, 37° C., 20 hours, read-out: MIC
[14] = iv, Enterobacter 8, i.p. infection, ICR mice, compound i.v. one hour after infection, survival 1 week, read-out: ED50
[15] = Klebsiella pneumoniae IFO 3317, i.p. infection, ICR mice, compound i.v. one hour after infection, survival 1 week, read-out: ED50
[16] = Pseudomonas aeruginosa IFO 3445, i.p. infection, ICR mice, compound i.v. one hour after infection, survival 1 week, read-out: ED50

Row | Structure (SMILES) | MIC [1] [µg/mL] | MIC [2, 9] [µg/mL] | MIC [3, 10] [µg/mL] | MIC [4] [µg/mL] | ED50 [5, 11] [mg/kg] | ED50 (Serratia marcescens 274; [12]) [mg/kg] | ED50 (Staphylococcus aureus 4) [mg/kg] | LD50 (LD50, Probit method) [mg/kg] | ED50 (Escherichia coli 67) [mg/kg] | ED50 (Staphylococcus aureus 58) [mg/kg] | other results
1 | Cc1cc(SCC2=C(C(=O)O)N3C(=O)[C@@H](NC(=O)/C(=N\OCc4ccc(C(=O)O)c(O)c4O)c4csc(N)n4)[C@H]3SC2)n2nc(C(=O)O)nc2n1 [Compound 5, (6R,7R)-7-[2-(2-amino-4-thiazolyl)-2-[Z-[(4-carboxy-2,3-dihydroxyphenyl)methyl]oxyimino]acetamido]-3-[(2-carboxy-5-methyl-s-triazolo[1,5-a]pyrimidin-7-yl)thiomethyl]-8-oxo-5-thia-1-azabicyclo[4.2.0]oct-2-ene-2-carboxylic acid] | 0.78 (≈ 1.03 µM) | 0.05 (≈ 0.066 µM) | 0.78 (≈ 1.03 µM) | 3.13 (≈ 4.13 µM) | 81.2 | 0.75 | 4.21 | > 4000 | – | – | –
2 | CC(C)(O/N=C(\C(=O)N[C@@H]1C(=O)N2C(C(=O)[O-])=C(C[n+]3ccccc3)CS[C@H]12)c1csc(N)n1)C(=O)O [CAZ, Ceftazidime, reference compound] | 0.2 (≈ 0.366 µM) | – | – | – | – | – | – | – | 2.8 | – | MIC ([2]; Klebsiella pneumoniae, IFO3317, 20 h): < 0.05 µg/mL; MIC ([6]; Pseudomonas aeruginosa, 34, 20 h): 3.13 µg/mL (≈ 5.73 µM); MIC ([3]; Serratia marcescens, IFO3759, 20 h): < 0.05 µg/mL; ED50 (Enterobacter 8; Enterobacter, 8, iv): 4.36 mg/kg; ED50 ([7]; Klebsiella pneumoniae): 1.73 mg/kg; ED50 ([5]; Pseudomonas aeruginosa, 34, iv): 123 mg/kg; ED50 ([8]; Pseudomonas aeruginosa): 230 mg/kg; ED50 (Serratia marcescens 274; Serratia marcescens, 274, iv): 3.62 mg/kg
3 | Cc1cc(SCC2=C(C(=O)O)N3C(=O)[C@@H](NC(=O)/C(=N\OCc4cc(O)c(O)c(C(=O)O)c4)c4csc(N)n4)[C@H]3SC2)n2nc(C(=O)O)nc2n1 [Compound 3, (6R,7R)-7-[2-(2-amino-4-thiazolyl)-2-[Z-[(3-carboxy-4,5-dihydroxyphenyl)methyl]oxyimino]acetamido]-3-[(2-carboxy-5-methyl-s-triazolo[1,5-a]pyrimidin-7-yl)thiomethyl]-8-oxo-5-thia-1-azabicyclo[4.2.0]oct-2-ene-2-carboxylic acid] | 0.78 (≈ 1.03 µM) | 0.1 (≈ 0.132 µM) | 0.78 (≈ 1.03 µM) | 6.25 (≈ 8.25 µM) | 46.8 | 0.72 | 2.08 | > 4000 | – | – | –
4 | Cc1cc(SCC2=C(C(=O)O)N3C(=O)[C@@H](NC(=O)/C(=N\OCc4ccc(O)c(O)c4C(=O)O)c4csc(N)n4)[C@H]3SC2)n2nc(C(=O)O)nc2n1 [Compound 4, (6R,7R)-7-[2-(2-amino-4-thiazolyl)-2-[Z-[(2-carboxy-3,4-dihydroxyphenyl)methyl]oxyimino]acetamido]-3-[(2-carboxy-5-methyl-s-triazolo[1,5-a]pyrimidin-7-yl)thiomethyl]-8-oxo-5-thia-1-azabicyclo[4.2.0]oct-2-ene-2-carboxylic acid] | 0.39 (≈ 0.515 µM) | 0.05 (≈ 0.066 µM) | 0.39 (≈ 0.515 µM) | 3.13 (≈ 4.13 µM) | 50.6 | 0.97 | 3.35 | > 4000 | – | – | –
5 | Cc1cc(SCC2=C(C(=O)O)N3C(=O)[C@@H](NC(=O)/C(=N\OCc4c(C(=O)O)ccc(O)c4O)c4csc(N)n4)[C@H]3SC2)n2nc(C(=O)O)nc2n1 [Compound 1, (6R,7R)-7-[2-(2-amino-4-thiazolyl)-2-[Z-[(6-carboxy-2,3-dihydroxyphenyl)methyl]oxyimino]acetamido]-3-[(2-carboxy-5-methyl-s-triazolo[1,5-a]pyrimidin-7-yl)thiomethyl]-8-oxo-5-thia-1-azabicyclo[4.2.0]oct-2-ene-2-carboxylic acid] | 0.78 (≈ 1.03 µM) | < 0.05 | 0.39 (≈ 0.515 µM) | 6.25 (≈ 8.25 µM) | – | 0.5 | – | > 4000 | 1.59 | 15.9 | MIC [6, 13]: 0.2 µg/mL (≈ 0.264 µM); ED50 (Enterobacter 8; [14]): 1.28 mg/kg; ED50 [7, 15]: 0.55 mg/kg; ED50 [8, 16]: 52 mg/kg
6 | Cc1cc(SCC2=C(C(=O)O)N3C(=O)[C@@H](NC(=O)/C(=N\OCc4cc(C(=O)O)cc(O)c4O)c4csc(N)n4)[C@H]3SC2)n2nc(C(=O)O)nc2n1 [Compound 2, (6R,7R)-7-[2-(2-amino-4-thiazolyl)-2-[Z-[(5-carboxy-2,3-dihydroxyphenyl)methyl]oxyimino]acetamido]-3-[(2-carboxy-5-methyl-s-triazolo[1,5-a]pyrimidin-7-yl)thiomethyl]-8-oxo-5-thia-1-azabicyclo[4.2.0]oct-2-ene-2-carboxylic acid] | 0.39 (≈ 0.515 µM) | 0.05 (≈ 0.066 µM) | 0.1 (≈ 0.132 µM) | 6.25 (≈ 8.25 µM) | – | 0.55 | – | > 4000 | 1.1 | 9.65 | MIC [6, 13]: 0.2 µg/mL (≈ 0.264 µM); ED50 (Enterobacter 8; [14]): 1.31 mg/kg; ED50 [7, 15]: 0.34 mg/kg; ED50 [8, 16]: 33.7 mg/kg
7 | Cn1nnnc1SCC1=C(C(=O)O)N2C(=O)[C@@H](NC(=O)[C@H](O)c3ccccc3)[C@H]2SC1 [CMD, Cefamandole, reference compound] | – | – | – | – | – | – | 5.94 | – | – | 18.9 | –
